Broadly, the IC50 is the midpoint of a concentration-inhibition curve.

For 15 compounds, IC50 results are on record in patent US20250223259A1, “PROTEASE INHIBITORS FOR TREATING OR PREVENTING CORONAVIRUS INFECTION” (Merck Sharp & Dohme LLC, priority 2022, published 2025).

The assay addresses SARS2 coronavirus 3CL protease (Severe acute respiratory syndrome coronavirus 2 (2019-nCoV) (SARS-CoV-2), UniProt P0DTD1). Briefly: SARS2 Coronavirus 3CL Protease Assay (FRET). As to conditions: SARS2 3CLPro FRET assay; 5 nM enzyme, 30 min pre-incubation with compound, 15 uM peptide substrate, 4 h room temperature. The class given is biochemical.
In the case of `CNC(=O)C(=O)[C@H](CCC(C)(F)F)NC(=O)[C@@H]1[C@H]2CCC[C@H]2CN1C(=O)[C@@H](NC(=O)OCC(F)(F)F)C(C)(C)C` [Example 122, 2,2,2-trifluoroethyl ((S)-1-((1S,3aR,6aS)-1-(((S)-6,6-difluoro-1-(methylamino)-1,2-dioxoheptan-3-yl)carbamoyl)hexahydrocyclopenta[c]pyrrol-2(1H)-yl)-3,3-dimethyl-1-oxobutan-2-yl)carbamate], the IC50 came out at 34 nM.
To `CNC(=O)C(=O)[C@H](CCC(C)(F)F)NC(=O)[C@@H]1C[C@@H](C(F)(F)F)CN1C(=O)[C@@H](NC(=O)OC)C(C)(C)C` [Example 27, Methyl ((S)-1-((2S,4R)-2-(((S)-6,6-difluoro-1-(methylamino)-1,2-dioxoheptan-3-yl)carbamoyl)-4-(trifluoromethyl)pyrrolidin-1-yl)-3,3-dimethyl-1-oxobutan-2-yl)carbamate] belongs 14 nM; to `CNC(=O)C(=O)[C@H](CCC(C)(F)F)NC(=O)[C@@H]1[C@H]2CCC[C@H]2CN1C(=O)[C@@H](NC(=O)OC)C12CC(C(F)(F)F)(C1)C2` [Example 114, methyl ((S)-2-((1S,3aR,6aS)-1-(((S)-6,6-difluoro-1-(methylamino)-1,2-dioxoheptan-3-yl)carbamoyl)hexahydrocyclopenta[c]pyrrol-2(1H)-yl)-2-oxo-1-(3-(trifluoromethyl)bicyclo[1.1 1]pentan-1-yl)ethyl)carbamate], 27 nM; to `COC(=O)N[C@H](C(=O)N1CCC(OC(F)F)CC1C(=O)N[C@@H](CCC(C)(F)F)C(=O)C(=O)NC1CC1)C(C)(C)C` (single isomer, unassigned) [Example 109, methyl ((S)-1-((2R,4R or 2S,4S)-2-(((S)-1-(cyclopropylamino)-6,6-difluoro-1,2-dioxoheptan-3-yl)carbamoyl)-4-(difluoromethoxy)piperidin-1-yl)-3,3-dimethyl-1-oxobutan-2-yl)carbamate], 50 nM.
In the case of `COC(=O)N[C@H](C(=O)N1CC2(CCCCC2)C[C@H]1C(=O)N[C@@H](CCC(C)(F)F)C(=O)C(=O)NC1CCCCC1)C(C)(C)C` [Example 16, Methyl ((S)-1-((S)-3-(((S)-1-(cyclohexylamino)-6,6-difluoro-1,2-dioxoheptan-3-yl)carbamoyl)-2-azaspiro[4.5]decan-2-yl)-3,3-dimethyl-1-oxobutan-2-yl)carbamate] it was 136 nM; in that of `COC(=O)N[C@H](C(=O)N1CCC2CC2[C@H]1C(=O)N[C@@H](CCC(C)(F)F)C(=O)C(=O)NC1CC1)C(C)(C)C` (single isomer, unassigned) [Example 83, methyl ((S)-1-((1R,2S,6R or 1R,2S,6S)-2-(((S)-1-(cyclopropylamino)-6,6-difluoro-1,2-dioxoheptan-3-yl)carbamoyl)-3-azabicyclo[4.1.0]heptan-3-yl)-3,3-dimethyl-1-oxobutan-2-yl)carbamate], 83 nM.
In the case of `CNC(=O)C(=O)[C@H](CCC(C)(F)F)NC(=O)[C@@H]1CC(F)(F)[C@@H](C)CN1C(=O)[C@@H](NC(=O)OC)C(C)(C)C` [Example 91, methyl ((S)-1-((2S,5S)-2-(((S)-6,6-difluoro-1-(methylamino)-1,2-dioxoheptan-3-yl)carbamoyl)-4,4-difluoro-5-methylpiperidin-1-yl)-3,3-dimethyl-1-oxobutan-2-yl)carbamate] it was 19 nM; in that of `COC(=O)N[C@H](C(=O)N1C[C@H]2[C@@H](C1C(=O)N[C@@H](CCC(C)(F)F)C(=O)C(=O)NC1CC1)C2(Cl)Cl)C(C)(C)C` (single isomer, unassigned) [Example 106, methyl ((S)-1-((1S,2(S or R),5R)-6,6-dichloro-2-(((S)-1-(cyclopropylamino)-6,6-difluoro-1,2-dioxoheptan-3-yl)carbamoyl)-3-azabicyclo[3.1.0]hexan-3-yl)-3,3-dimethyl-1-oxobutan-2-yl)carbamate], 8 nM; in that of `COC(=O)N[C@H](C(=O)N1CC(C)(C)C[C@H]1C(=O)N[C@@H](CCC(C)(F)F)C(=O)C(=O)NC1CC1)C(C)(C)C` [Example 76, Methyl ((S)-1-((S)-2-(((S)-1-(cyclopropylamino)-6,6-difluoro-1,2-dioxoheptan-3-yl)carbamoyl)-4,4-dimethylpyrrolidin-1-yl)-3,3-dimethyl-1-oxobutan-2-yl)carbamate], 87 nM.
As to `COC(=O)N[C@H](C(=O)N1C[C@H]2[C@@H]([C@H]1C(=O)N[C@@H](CCC(C)(F)F)C(=O)C(N)=O)C(C)(C)C2(C)C)C(C)(C)C` [Example 42, Methyl ((S)-1-((1R,2S,5S)-2-(((S)-1-amino-6,6-difluoro-1,2-dioxoheptan-3-yl)carbamoyl)-6,6,7,7-tetramethyl-3-azabicyclo[3.2.0]heptan-3-yl)-3,3-dimethyl-1-oxobutan-2-yl)carbamate], the IC50 came to 22 nM.
With `CNC(=O)C(=O)[C@H](CCC(C)(F)F)NC(=O)[C@@H]1[C@H]2CCC(F)(F)[C@H]2CN1C(=O)[C@@H](NC(=O)OC)C(C)(C)C` [Example 35, Methyl ((S)-1-((1S,3aR,6aS)-1-(((S)-6,6-difluoro-1-(methylamino)-1,2-dioxoheptan-3-yl)carbamoyl)-4,4-difluorohexahydrocyclopenta[c]pyrrol-2(1H)-yl)-3,3-dimethyl-1-oxobutan-2-yl)carbamate], the IC50 was 8.2 nM.
To `CNC(=O)C(=O)[C@H](CCC(C)(F)F)NC(=O)C1CC(C)(F)CCN1C(=O)[C@@H](NC(=O)OC)C(C)(C)C` (single isomer, unassigned) [Example 97, methyl ((S)-1-((2S,4S or 2R,4R)-2-(((S)-6,6-difluoro-1-(methylamino)-1,2-dioxoheptan-3-yl)carbamoyl)-4-fluoro-4-methylpiperidin-1-yl)-3,3-dimethyl-1-oxobutan-2-yl)carbamate] belongs 19 nM.
To `COC(=O)N[C@H](C(=O)N1C[C@H](C(F)(F)F)C[C@H]1C(=O)N[C@@H](CCC(C)(F)F)C(=O)C(=O)NC1CC1)C(C)(C)C` [Example 67, Methyl ((S)-1-((2S,4R)-2-(((S)-1-(cyclopropylamino)-6,6-difluoro-1,2-dioxoheptan-3-yl)carbamoyl)-4-(trifluoromethyl)pyrrolidin-1-yl)-3,3-dimethyl-1-oxobutan-2-yl)carbamate] belongs 20 nM.
To `CNC(=O)C(=O)[C@H](CCC(C)(F)F)NC(=O)[C@@H]1CC2(CN1C(=O)[C@@H](NC(=O)OC)C(C)(C)C)CC2(F)F` (single isomer, unassigned) [Example 93, methyl ((S)-1-((3(S or R),6S)-6-(((S)-6,6-difluoro-1-(methylamino)-1,2-dioxoheptan-3-yl)carbamoyl)-1,1-difluoro-5-azaspiro[2.4]heptan-5-yl)-3,3-dimethyl-1-oxobutan-2-yl)carbamate] belongs 28 nM.
`COCCNC(=O)C(=O)[C@H](CCC(C)(F)F)NC(=O)[C@@H]1[C@H]2CCC[C@H]2CN1C(=O)[C@@H](NC(=O)OC)C(C)(C)C` [Example 102, methyl ((S)-1-((1S,3aR,6aS)-1-(((S)-6,6-difluoro-1-((2-methoxyethyl)amino)-1,2-dioxoheptan-3-yl)carbamoyl)hexahydrocyclopenta[c]pyrrol-2(1H)-yl)-3,3-dimethyl-1-oxobutan-2-yl)carbamate]: the IC50 came out at 61 nM.
